Each structure is given as a SMILES string.

One test relates to HUVEC. Put plainly: Antiangiogenic activity in HUVEC assessed as inhibition of VEGF-induced capillary tube formation incubated for 6 hrs by capillary tube formation assay. Type of test: functional, cell-based. The note with it: Homo sapiens.
The test system of a further test is Hepa1c1c7. Put plainly: Activation of QR in mouse Hepa1c1c7 cells assessed as increase in QR activity at 20 uM incubated for 24 hrs by NADPH-dependent menadiol-mediated reduction of MTT based assay relative to control. The format is cell-based. Conditions: filed as activator. In general terms: Tetrazolium assays rely on reduction of a dye to a coloured formazan, in cell work by metabolically active cells.

What is called IC50 is the concentration at which inhibition is half-maximal. With `CC(C)C[C@H]1NC(=O)[C@@H]2CCCN2C(=O)[C@H]([C@@H](O)c2ccccc2)NC(=O)CNC(=O)[C@H](C(C)C)NC(=O)[C@H]2NC(=O)[C@@H](NC(=O)/C=C/c3ccccc3[C@H]3O[C@@H]3C)[C@@H](C)OC(=O)[C@@H](CC(N)=O)NC(=O)[C@H](NC(=O)[C@H](O)NC1=O)[C@@H](O)c1ccc(O)c(c1)Oc1ccc2cc1`, the IC50 with HUVEC was found to be 8.9 µM. Further, the fold change (FC) in the test with Hepa1c1c7 worked out at 1.8. On to `CCN(CC)CCNC(=O)c1c(C)[nH]c(/C=C2\C(=O)Nc3ccc(F)cc32)c1C` [SUNITINIB], for which the IC50 in the test with HUVEC turned out to be 2.1 µM.
